From ChEMBL document CHEMBL5223122, “Discovery and preclinical evaluations of GST-HG131, a novel HBV antigen inhibitor for the treatment of chronic hepatitis B infection” (Bioorg Med Chem Lett, 2022)
Activity calls are given as the source filed them. No cut-off for these calls is given here.

Experiments:
[1] = Toxicity in rat assessed as mild white myeloid lymphocytopenia of spleen at 1000 mg/kg, po QD for 14 days; format: organism-based; settings: in vivo, 336 h, time 14 day
[2] = system: Hepatitis B virus; experiment: Antiviral activity against HBV infected in human HepG2.2.15 assessed as reduction on HBsAg level by ELISA; format: functional, organism-based
[3] = Toxicity in rat assessed as mild central lobular hepatocyte degeneration of liver at 1000 mg/kg, po QD for 14 days; format: organism-based; settings: hepatocytes, 336 h, time 14 day
[4] = Toxicity in mouse infected with AAV encapsidated HBV assessed as change in body weight at 10 mg/kg, po QD for 4 weeks; format: organism-based; settings: in vivo, 672 h
[5] = Toxicity in rat assessed as mydriasis at 300 to 1000 mg/kg, po; format: organism-based; settings: in vivo, dose 300-1000 mg/kg
[6] = system: Hepatitis B virus; experiment: In vivo antiviral activity against AAV encapsidated HBV infected in mouse assessed as reduction in HBsAg level at 10 mg/kg, po QD for 4 weeks by ELISA; format: functional, organism-based
[7] = Toxicity in rat assessed as decrease in normal rectal temperature at 300 mg/kg, po; format: organism-based; settings: in vivo
[8] = system: Hepatitis B virus; experiment: In vivo antiviral activity against AAV encapsidated HBV infected in mouse assessed as reduction in HBeAg level at 10 mg/kg, po QD for 4 weeks by ELISA; format: functional, organism-based
[9] = Toxicity in rat assessed as decrease in normal rectal temperature at 1000 mg/kg, po; format: organism-based; settings: in vivo
[10] = Toxicity in rat assessed as moderate acute mucosal inflammation of duodenum at 1000 mg/kg, po QD for 14 days; format: organism-based; settings: in vivo, 336 h, time 14 day
[11] = system: Hepatitis B virus; experiment: Antiviral activity against HBV infected in human HepG2.2.15 assessed as HBV DNA reduction by qPCR method; format: functional, organism-based
[12] = Toxicity in rat assessed as mild myocardial degeneration of heart at 1000 mg/kg, po QD for 14 days; format: organism-based; settings: in vivo, 336 h, time 14 day
[13] = Toxicity in rat assessed as organ abnormality at 100 to 300 mg/kg, po QD for 14 days; format: organism-based; settings: in vivo, 336 h, dose 100-300 mg/kg, time 14 day
[14] = Half life in C57BL/6 mouse at 1 mg/kg, iv; format: ADME, organism-based; settings: in vivo
[15] = Clearance in C57BL/6 mouse at 1 mg/kg, iv; format: ADME, organism-based; settings: in vivo
[16] = Oral bioavailability in Sprague-Dawley rat at 2 mg/kg; format: ADME, organism-based; settings: in vivo
[17] = Half life in Sprague-Dawley rat at 1 mg/kg, iv; format: ADME, organism-based; settings: in vivo
[18] = Clearance in Sprague-Dawley rat at 1 mg/kg, iv; format: ADME, organism-based; settings: in vivo
[19] = Cmax in Sprague-Dawley rat at 2 mg/kg, po; format: ADME, organism-based; set-up: dose 2 mg/kg, route po; settings: in vivo
[20] = Oral bioavailability in C57BL/6 mouse at 2 mg/kg; format: ADME, organism-based; settings: in vivo
[21] = Volume of distribution in steady state in Sprague-Dawley rat at 1 mg/kg, iv; format: ADME, organism-based; settings: in vivo, read-out: Vdss
[22] = AUC (0-last) in Sprague-Dawley rat at 2 mg/kg, po; format: ADME, organism-based; set-up: dose 2 mg/kg, route po; settings: in vivo
[23] = Cmax in C57BL/6 mouse at 2 mg/kg, po; format: ADME, organism-based; set-up: dose 2 mg/kg, route po; settings: in vivo
[24] = AUC (0-last) in C57BL/6 mouse at 2 mg/kg, po; format: ADME, organism-based; set-up: dose 2 mg/kg, route po; settings: in vivo
[25] = Volume of distribution in steady state in C57BL/6 mouse at 1 mg/kg, iv; format: ADME, organism-based; settings: in vivo, read-out: Vdss
[26] = Toxicity in mouse infected with AAV encapsidated HBV assessed as change in body weight at 1 mg/kg, po QD for 4 weeks; format: organism-based; settings: in vivo, 672 h
[27] = system: Hepatitis B virus; experiment: Antiviral activity against HBV infected in human HepG2.2.15 cells assessed as reduction of 3.5 Kb HBV RNA level at 50 nM and incubated for 4 to 48 hrs by Northern blot anlaysis; format: functional, organism-based; settings: time 4-48 hrs
[28] = system: Hepatitis B virus; experiment: Antiviral activity against HBV infected in human primary hepatocytes assessed as HBV DNA reduction by qPCR method; format: functional, organism-based; settings: Hepatocyte
[29] = system: Hepatitis B virus; experiment: Antiviral activity against HBV infected in human primary hepatocytes assessed as reduction on HBeAg level by ELISA; format: functional, organism-based; settings: Hepatocyte
[30] = system: Hepatitis B virus; experiment: Antiviral activity against HBV infected in human primary hepatocytes assessed as reduction on HBsAg level by ELISA; format: functional, organism-based; settings: Hepatocyte
[31] = system: Hepatitis B virus; experiment: In vivo antiviral activity against AAV encapsidated HBV infected in mouse assessed as reduction in HBV DNA at 1 mg/kg, po QD for 4 weeks in presence of (R)-7-(tert-butyl)-2-methoxy-3-(3-methoxypropoxy)-11-oxo-6,7-dihydro-11H-benzo[f]pyrido[1,2-d][1,4]oxazepine-10-carboxylic acid by qPCR method; format: functional, organism-based
[32] = system: Hepatitis B virus; experiment: In vivo antiviral activity against AAV encapsidated HBV infected in mouse assessed as reduction in HBeAg level at 1 mg/kg, po QD for 4 weeks in presence of (R)-7-(tert-butyl)-2-methoxy-3-(3-methoxypropoxy)-11-oxo-6,7-dihydro-11H-benzo[f]pyrido[1,2-d][1,4]oxazepine-10-carboxylic acid by ELISA; format: functional, organism-based
[33] = system: Hepatitis B virus; experiment: In vivo antiviral activity against AAV encapsidated HBV infected in mouse assessed as reduction in HBsAg level at 1 mg/kg, po QD for 4 weeks in presence of (R)-7-(tert-butyl)-2-methoxy-3-(3-methoxypropoxy)-11-oxo-6,7-dihydro-11H-benzo[f]pyrido[1,2-d][1,4]oxazepine-10-carboxylic acid by ELISA; format: functional, organism-based

## COCCCOc1cc2c(cc1OC)-c1cc(=O)c(C(=O)O)cn1[C@H](C(C)C)C2
[1]
  Activity: Toxic
[2]
  EC50: 0.8 nM
[3]
  Activity: Toxic
[4]
  Activity: Non-Toxic
[5]
  Activity: Toxic
[6]
  Activity: Active
[7]
  Activity: Toxic
[8]
  Activity: Active
[9]
  Activity: Toxic
[10]
  Activity: Toxic
[11]
  EC50: 0.8 nM
[12]
  Activity: Toxic
[13]
  Activity: Non-Toxic

## COCCCOc1cc2c(cc1C(C)=O)-c1cc(=O)c(C(=O)O)cn1[C@H](C(C)(C)C)CO2
[2]
  EC50: 1.3 nM
[14]
  half-life: 0.6 h
[15]
  clearance: 81 mL/min/kg
[16]
  bioavailability: 10.4%
[17]
  half-life: 0.8 h
[18]
  clearance: 33 mL/min/kg
[19]
  Cmax: 104 nM
[20]
  bioavailability: 55.3%
[21]
  Vd: 1 L/kg
[22]
  AUC(0-t): 0.228 µM·h
[11]
  EC50: 0.5 nM
[23]
  Cmax: 604 nM
[24]
  AUC(0-t): 0.478 µM·h
[25]
  Vd: 2.5 L/kg

## COCCCOc1cc2c(cc1Cl)-c1cc(=O)c(C(=O)O)cn1[C@H](C)CO2
[2]
  EC50: 226 nM
[11]
  EC50: 193 nM

## CC[C@@H]1COc2cc(OCCCOC)c(Cl)cc2-c2cc(=O)c(C(=O)O)cn21
[2]
  EC50: 47.2 nM
[11]
  EC50: 44.7 nM

## COCCCOc1cc2c(cc1Cl)-c1cc(=O)c(C(=O)O)cn1[C@H](C1CCC1)CO2
[2]
  EC50: 125 nM
[11]
  EC50: 531 nM

## COCCCOc1ccc(-c2cc(=O)c(C(=O)O)cn2-c2ccccc2C)cc1Cl
[2]
  EC50: 230 nM
[11]
  EC50: 140 nM

## C=C1[C@H](CO)[C@@H](O)C[C@@H]1n1cnc2c(=O)[nH]c(N)nc21.O [ENTECAVIR]
[26]
  Activity: Non-Toxic
[27]
  Activity: inactive
[28]
  EC50: 0.0078 nM
[29]
  EC50: > 0.05 nM
[30]
  EC50: > 0.05 nM

## COCCCOc1cc2c(cc1Cl)-c1cc(=O)c(C(=O)O)cn1[C@H](c1ccccc1)CO2
[2]
  EC50: > 1000 nM
[11]
  EC50: > 1000 nM

## COCCCOc1cc2c(cc1Cl)-c1cc(=O)c(C(=O)O)cn1[C@H](C(C)C)CO2
[2]
  EC50: 6.6 nM
[14]
  half-life: 1.6 h
[15]
  clearance: 32 mL/min/kg
[20]
  bioavailability: 56.3%
[11]
  EC50: 8.8 nM
[23]
  Cmax: 1310 nM
[24]
  AUC(0-t): 1.34 µM·h
[25]
  Vd: 1.7 L/kg

## COCCCOc1cc2c(cc1Cl)-c1cc(=O)c(C(=O)O)cn1[C@H](CC(C)C)CO2
[2]
  EC50: 128 nM
[11]
  EC50: 102 nM

## COCCCOc1cc2c(cc1Cl)-c1cc(=O)c(C(=O)O)cn1[C@H](C(C)C)C2
[2]
  EC50: 0.9 nM
[11]
  EC50: 0.8 nM

## COCCCOc1cc2c(cc1Cl)-c1cc(=O)c(C(=O)O)cn1[C@H](C(C)(C)C)CO2
[2]
  EC50: 0.7 nM
[14]
  half-life: 6.3 h
[15]
  clearance: 58.5 mL/min/kg
[20]
  bioavailability: 18.3%
[11]
  EC50: 0.5 nM
[23]
  Cmax: 203 nM
[24]
  AUC(0-t): 0.193 µM·h
[25]
  Vd: 4.9 L/kg

## COCCCOc1cc2c(cc1Cl)-c1cc(=O)c(C(=O)O)cn1[C@H](C1CC1)CO2
[2]
  EC50: 66.2 nM
[11]
  EC50: 105 nM

## CC(C)OC(=O)OCOP(=O)(CO[C@H](C)Cn1cnc2c(N)ncnc21)OCOC(=O)OC(C)C
[31]
  Activity: Active
[32]
  Activity: inactive
[33]
  Activity: inactive
